Biological target: T1, adenosine deaminase (Type IV) from bovine spleen (Bos taurus, UniProt P56658)
T1 construct: adenosine deaminase (Type IV) from bovine spleen (a suspension in 3.2 M (NH4)2SO4, pH 6); from tissue; host or cells: bovine spleen
Test: Inhibition of adenosine deaminase (Example 9)
Assay type: biochemical
Details: Lineweaver-Burk plot
Excerpt: The concentration of inhibitor, the title compound, used for the present study ranged from 4.6×10^−5 to 9.2×10^−5 M. The enzyme concentration used for each of the assays was 0.0235 units/mL. As computed by the Lineweaver-Burk plot.

T1 sequence (P56658 whole entry): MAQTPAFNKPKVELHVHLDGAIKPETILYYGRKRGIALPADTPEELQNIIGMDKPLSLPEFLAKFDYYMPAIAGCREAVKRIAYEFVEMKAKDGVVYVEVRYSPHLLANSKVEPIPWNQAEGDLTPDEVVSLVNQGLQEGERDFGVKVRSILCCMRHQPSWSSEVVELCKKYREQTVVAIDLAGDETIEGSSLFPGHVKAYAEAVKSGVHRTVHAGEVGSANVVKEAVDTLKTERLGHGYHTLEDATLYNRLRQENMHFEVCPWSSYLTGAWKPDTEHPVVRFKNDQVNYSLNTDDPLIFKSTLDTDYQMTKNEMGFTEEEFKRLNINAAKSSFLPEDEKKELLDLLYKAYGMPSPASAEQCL

Compound: N=c1nc(N)c2ncn([C@@H]3O[C@H](CO)[C@@H](O)[C@H]3O)c2c(N)n1 [Compound 14-2, 4,8-Diamino-6H-6-imino-1-β-D-ribofuranosylimidazo[4,5-e][1,3]diazepine]
- mode of inhibition of adenosine deaminase: competitive inhibitor
